Measured values: ChEMBL document CHEMBL5625219, “Design, synthesis fusidic acid derivatives alleviate acute lung injury via inhibiting MAPK/NF-κB/NLRP3 pathway” (Eur J Med Chem, 2023)

Assays:
RAW264.7 = assay: Cytotoxicity against mouse RAW264.7 cells assessed as reduction in cell viability at 30 uM incubated for 24 hrs by MTT assay relative to control; type: toxicity, cell-based; settings: raw264.7, 24 h
[1] = Cytotoxicity against mouse RAW264.7 cells assessed as inhibition of cell growth incubated for 24 hrs by MTT assay; type: toxicity, cell-based

COc1ccc(-n2cc(COC(=O)/C(CCC=C(C)C)=C3\[C@@H](OC(C)=O)C[C@@]4(C)[C@H]3C[C@@H](O)[C@H]3[C@@]5(C)CC[C@@H](O)[C@@H](C)[C@@H]5CC[C@@]34C)nn2)cc1
Activity (RAW264.7): 99.38%
IC50 at 24 h [1]: 43.6 µM

CC(=O)O[C@H]1C[C@@]2(C)[C@@H](C[C@@H](O)[C@H]3[C@@]4(C)CC[C@@H](O)[C@@H](C)[C@@H]4CC[C@@]32C)/C1=C(\CCC=C(C)C)C(=O)OCc1cn(-c2ccc(Cl)cc2)nn1
Activity (RAW264.7): 101.39%
IC50 at 24 h [1]: 119 µM

CC(=O)O[C@H]1C[C@@]2(C)[C@@H](C[C@@H](O)[C@H]3[C@@]4(C)CC[C@@H](O)[C@@H](C)[C@@H]4CC[C@@]32C)/C1=C(\CCC=C(C)C)C(=O)OCc1nnc(-c2ccc(F)cc2)o1
Activity (RAW264.7): 102.47%
IC50 at 24 h [1]: 47.9 µM

CC(=O)O[C@H]1C[C@@]2(C)[C@@H](C[C@@H](O)[C@H]3[C@@]4(C)CC[C@@H](O)[C@@H](C)[C@@H]4CC[C@@]32C)/C1=C(\CCC=C(C)C)C(=O)OCc1cn(Cc2ccc(F)cc2)nn1
Activity (RAW264.7): 103.74%
IC50 at 24 h [1]: 68.7 µM

CC(=O)O[C@H]1C[C@@]2(C)[C@@H](C[C@@H](O)[C@H]3[C@@]4(C)CC[C@@H](O)[C@@H](C)[C@@H]4CC[C@@]32C)/C1=C(\CCC=C(C)C)C(=O)OCc1nnc(-c2ccc([N+](=O)[O-])cc2)o1
Activity (RAW264.7): 103.17%
IC50 at 24 h [1]: 100 µM

CC(=O)O[C@H]1C[C@@]2(C)[C@@H](C[C@@H](O)[C@H]3[C@@]4(C)CC[C@@H](O)[C@@H](C)[C@@H]4CC[C@@]32C)/C1=C(\CCC=C(C)C)C(=O)OCc1cc(-c2ccc(Br)cc2)no1
Activity (RAW264.7): 96.29%
IC50 at 24 h [1]: 40.9 µM

CC(=O)O[C@H]1C[C@@]2(C)[C@@H](C[C@@H](O)[C@H]3[C@@]4(C)CC[C@@H](O)[C@@H](C)[C@@H]4CC[C@@]32C)/C1=C(\CCC=C(C)C)C(=O)OCc1cc(-c2ccc(C)cc2)no1
Activity (RAW264.7): 104.48%
IC50 at 24 h [1]: 75.9 µM

CC(=O)O[C@H]1C[C@@]2(C)[C@@H](C[C@@H](O)[C@H]3[C@@]4(C)CC[C@@H](O)[C@@H](C)[C@@H]4CC[C@@]32C)/C1=C(\CCC=C(C)C)C(=O)OCc1cn(-c2ccc(F)cc2)nn1
Activity (RAW264.7): 100.85%
IC50 at 24 h [1]: 46.5 µM

CC(=O)O[C@H]1C[C@@]2(C)[C@@H](C[C@@H](O)[C@H]3[C@@]4(C)CC[C@@H](O)[C@@H](C)[C@@H]4CC[C@@]32C)/C1=C(\CCC=C(C)C)C(=O)OCc1cc(-c2ccc(F)cc2)no1
Activity (RAW264.7): 103.63%
IC50 at 24 h [1]: 62.4 µM

COc1cc(-c2nnc(COC(=O)/C(CCC=C(C)C)=C3\[C@@H](OC(C)=O)C[C@@]4(C)[C@H]3C[C@@H](O)[C@H]3[C@@]5(C)CC[C@@H](O)[C@@H](C)[C@@H]5CC[C@@]34C)o2)cc(OC)c1OC
Activity (RAW264.7): 97.84%
IC50 at 24 h [1]: 129 µM

COc1cc(Cn2cc(COC(=O)/C(CCC=C(C)C)=C3\[C@@H](OC(C)=O)C[C@@]4(C)[C@H]3C[C@@H](O)[C@H]3[C@@]5(C)CC[C@@H](O)[C@@H](C)[C@@H]5CC[C@@]34C)nn2)cc(OC)c1OC
Activity (RAW264.7): 97.45%
IC50 at 24 h [1]: 56.1 µM

COc1ccc(-c2cc(COC(=O)/C(CCC=C(C)C)=C3\[C@@H](OC(C)=O)C[C@@]4(C)[C@H]3C[C@@H](O)[C@H]3[C@@]5(C)CC[C@@H](O)[C@@H](C)[C@@H]5CC[C@@]34C)on2)cc1
Activity (RAW264.7): 97.68%
IC50 at 24 h [1]: 77.2 µM

CC(=O)O[C@H]1C[C@@]2(C)[C@@H](C[C@@H](O)[C@H]3[C@@]4(C)CC[C@@H](O)[C@@H](C)[C@@H]4CC[C@@]32C)/C1=C(\CCC=C(C)C)C(=O)OCc1cn(-c2ccc(Cl)c(Cl)c2)nn1
Activity (RAW264.7): 104.17%
IC50 at 24 h [1]: 56.1 µM

COc1cc(-c2cc(COC(=O)/C(CCC=C(C)C)=C3\[C@@H](OC(C)=O)C[C@@]4(C)[C@H]3C[C@@H](O)[C@H]3[C@@]5(C)CC[C@@H](O)[C@@H](C)[C@@H]5CC[C@@]34C)on2)cc(OC)c1OC
Activity (RAW264.7): 95.67%
IC50 at 24 h [1]: 50.6 µM

CC(=O)O[C@H]1C[C@@]2(C)[C@@H](C[C@@H](O)[C@H]3[C@@]4(C)CC[C@@H](O)[C@@H](C)[C@@H]4CC[C@@]32C)/C1=C(\CCC=C(C)C)C(=O)OCc1nnc(-c2ccccc2)o1
Activity (RAW264.7): 102.94%
IC50 at 24 h [1]: 40.1 µM

CC(=O)O[C@H]1C[C@@]2(C)[C@@H](C[C@@H](O)[C@H]3[C@@]4(C)CC[C@@H](O)[C@@H](C)[C@@H]4CC[C@@]32C)/C1=C(\CCC=C(C)C)C(=O)OCc1cn(Cc2ccc(Br)cc2)nn1
Activity (RAW264.7): 100.93%
IC50 at 24 h [1]: 88.7 µM

CC(=O)O[C@H]1C[C@@]2(C)[C@@H](C[C@@H](O)[C@H]3[C@@]4(C)CC[C@@H](O)[C@@H](C)[C@@H]4CC[C@@]32C)/C1=C(\CCC=C(C)C)C(=O)OCc1cn(Cc2ccc(Cl)cc2)nn1
Activity (RAW264.7): 90.57%
IC50 at 24 h [1]: 72.5 µM

CC(=O)O[C@H]1C[C@@]2(C)[C@@H](C[C@@H](O)[C@H]3[C@@]4(C)CC[C@@H](O)[C@@H](C)[C@@H]4CC[C@@]32C)/C1=C(\CCC=C(C)C)C(=O)OCc1cc(-c2ccc(Cl)cc2)no1
Activity (RAW264.7): 103.94%
IC50 at 24 h [1]: 42 µM

COc1ccc(-n2cc(COC(=O)/C(CCC=C(C)C)=C3\[C@@H](OC(C)=O)C[C@@]4(C)[C@H]3C[C@@H](O)[C@H]3[C@@]5(C)CC[C@@H](O)[C@@H](C)[C@@H]5CC[C@@]34C)nn2)cc1OC
Activity (RAW264.7): 102.78%
IC50 at 24 h [1]: 76.6 µM

CC(=O)O[C@H]1C[C@@]2(C)[C@@H](C[C@@H](O)[C@H]3[C@@]4(C)CC[C@@H](O)[C@@H](C)[C@@H]4CC[C@@]32C)/C1=C(\CCC=C(C)C)C(=O)OCc1cc(-c2ccc(Cl)c(Cl)c2)no1
Activity (RAW264.7): 94.05%
IC50 at 24 h [1]: 44.6 µM

COc1cc(-n2cc(COC(=O)/C(CCC=C(C)C)=C3\[C@@H](OC(C)=O)C[C@@]4(C)[C@H]3C[C@@H](O)[C@H]3[C@@]5(C)CC[C@@H](O)[C@@H](C)[C@@H]5CC[C@@]34C)nn2)cc(OC)c1OC
Activity (RAW264.7): 98.92%
IC50 at 24 h [1]: 120 µM

CC(=O)O[C@H]1C[C@@]2(C)[C@@H](C[C@@H](O)[C@H]3[C@@]4(C)CC[C@@H](O)[C@@H](C)[C@@H]4CC[C@@]32C)/C1=C(\CCC=C(C)C)C(=O)OCc1cc(-c2ccccc2)no1
Activity (RAW264.7): 104.11%
IC50 at 24 h [1]: 93 µM

CC(=O)O[C@H]1C[C@@]2(C)[C@@H](C[C@@H](O)[C@H]3[C@@]4(C)CC[C@@H](O)[C@@H](C)[C@@H]4CC[C@@]32C)/C1=C(\CCC=C(C)C)C(=O)OCc1cn(-c2ccc([N+](=O)[O-])cc2)nn1
Activity (RAW264.7): 101.62%
IC50 at 24 h [1]: 120 µM

CC(=O)O[C@H]1C[C@@]2(C)[C@@H](C[C@@H](O)[C@H]3[C@@]4(C)CC[C@@H](O)[C@@H](C)[C@@H]4CC[C@@]32C)/C1=C(\CCC=C(C)C)C(=O)OCc1cn(Cc2ccccc2)nn1
Activity (RAW264.7): 98.53%
IC50 at 24 h [1]: 88.3 µM

COc1ccc(-c2cc(COC(=O)/C(CCC=C(C)C)=C3\[C@@H](OC(C)=O)C[C@@]4(C)[C@H]3C[C@@H](O)[C@H]3[C@@]5(C)CC[C@@H](O)[C@@H](C)[C@@H]5CC[C@@]34C)on2)cc1OC
Activity (RAW264.7): 100.7%
IC50 at 24 h [1]: 87.3 µM

COc1ccc(Cn2cc(COC(=O)/C(CCC=C(C)C)=C3\[C@@H](OC(C)=O)C[C@@]4(C)[C@H]3C[C@@H](O)[C@H]3[C@@]5(C)CC[C@@H](O)[C@@H](C)[C@@H]5CC[C@@]34C)nn2)cc1
Activity (RAW264.7): 100.31%
IC50 at 24 h [1]: 110 µM

CC(=O)O[C@H]1C[C@@]2(C)[C@@H](C[C@@H](O)[C@H]3[C@@]4(C)CC[C@@H](O)[C@@H](C)[C@@H]4CC[C@@]32C)/C1=C(\CCC=C(C)C)C(=O)OCc1cn(-c2ccc(Br)cc2)nn1
Activity (RAW264.7): 92.58%
IC50 at 24 h [1]: 54.5 µM

CC(=O)O[C@H]1C[C@@]2(C)[C@@H](C[C@@H](O)[C@H]3[C@@]4(C)CC[C@@H](O)[C@@H](C)[C@@H]4CC[C@@]32C)/C1=C(\CCC=C(C)C)C(=O)OCc1nnc(-c2ccc(Cl)cc2)o1
Activity (RAW264.7): 103.01%
IC50 at 24 h [1]: 44.3 µM

CC(=O)O[C@H]1C[C@@]2(C)[C@@H](C[C@@H](O)[C@H]3[C@@]4(C)CC[C@@H](O)[C@@H](C)[C@@H]4CC[C@@]32C)/C1=C(\CCC=C(C)C)C(=O)OCc1cn(-c2ccc(C)cc2)nn1
Activity (RAW264.7): 96.68%
IC50 at 24 h [1]: 89.6 µM

CC(=O)O[C@H]1C[C@@]2(C)[C@@H](C[C@@H](O)[C@H]3[C@@]4(C)CC[C@@H](O)[C@@H](C)[C@@H]4CC[C@@]32C)/C1=C(\CCC=C(C)C)C(=O)OCc1cn(Cc2ccc([N+](=O)[O-])cc2)nn1
Activity (RAW264.7): 101.85%
IC50 at 24 h [1]: 56.8 µM

COc1ccc(-c2nnc(COC(=O)/C(CCC=C(C)C)=C3\[C@@H](OC(C)=O)C[C@@]4(C)[C@H]3C[C@@H](O)[C@H]3[C@@]5(C)CC[C@@H](O)[C@@H](C)[C@@H]5CC[C@@]34C)o2)cc1
Activity (RAW264.7): 101.7%
IC50 at 24 h [1]: 114 µM

CC(=O)O[C@H]1C[C@@]2(C)[C@@H](C[C@@H](O)[C@H]3[C@@]4(C)CC[C@@H](O)[C@@H](C)[C@@H]4CC[C@@]32C)/C1=C(\CCC=C(C)C)C(=O)OCc1cn(Cc2ccc(C)cc2)nn1
Activity (RAW264.7): 105.96%
IC50 at 24 h [1]: 121 µM

CC(=O)O[C@H]1C[C@@]2(C)[C@@H](C[C@@H](O)[C@H]3[C@@]4(C)CC[C@@H](O)[C@@H](C)[C@@H]4CC[C@@]32C)/C1=C(\CCC=C(C)C)C(=O)OCc1cn(Cc2ccc(Cl)c(Cl)c2)nn1
Activity (RAW264.7): 100.62%
IC50 at 24 h [1]: 49.8 µM
